Laboratory results taken from patent publication US9296741B2, “Bromodomain inhibitors” (priority 2012, dated 2016).
Where two headings read alike, the source gives them in different places.

Tests used:
[1] = molecular target: human BRD4 first bromodomain (BDI_K57-E168) (Homo sapiens (Human), UniProt O60885); experiment: TR-FRET bromodomain binding assay, BRD4 first bromodomain
[2] = Human liver microsome stability assay; format: in vitro ADME; details: human, microsomes, pH 7.4; for half-life at 0.5 μM: both sexes
[3] = Rat liver microsome stability assay; format: in vitro ADME; details: for half-life at 0.5 μM: rat liver microsomes (male Sprague-Dawley), 0.5 μM test compound, 0.25 mg/mL microsomal protein, pH 7.4, 37° C., read-out: Stability in rat liver microsomes (t1/2 in minutes)
[4] = molecular target: human BRD4 second bromodomain (BDII_E352-M457) (Homo sapiens (Human), UniProt O60885); experiment: TR-FRET bromodomain binding assay, BRD4 second bromodomain
[5] = Mouse liver microsome stability assay; format: in vitro ADME; details: microsomes, pH 7.4; for half-life at 0.5 μM: male, CD1, mouse
[6] = system: breast cancer cell line MX-1; experiment: MX-1 cell line proliferation assay; format: cell-based, human; details: MX-1 cells, 3-day proliferation, Cell Titer Glo, read-out: Cellular proliferation: EC50

SMILES | Ki [1] [nM] | half-life at 0.5 μM [2] [min] | half-life at 0.5 μM [3] [min] | Ki [4] [nM] | half-life at 0.5 μM [5] [min] | EC50 ([6]; Homo sapiens, MX1, 72 h) [nM] | Stability in human liver microsomes (t1/2 in minutes) [2] [min] | Stability in rat liver microsomes (t1/2 in minutes) ([3]; rat, microsomes, pH 7.4) [min] | Stability in mouse liver microsomes (t1/2 in minutes) ([5]; mouse) [min] | EC50 [6] [nM]
CN(C)C(=O)c1cc2c(-c3cc(S(C)(=O)=O)ccc3Oc3ccc(F)cc3F)cn(C)c(=O)c2[nH]1 [Example 269, 4-[2-(2,4-difluorophenoxy)-5-(methylsulfonyl)phenyl]-N,N,6-trimethyl-7-oxo-6,7-dihydro-1 H-pyrrolo[2,3-c]pyridine-2-carboxamide] | 12.4 | 79 | 83 | 56.9 | 58 | 329 |  |  |  | 
Cn1cc(-c2cc(S(C)(=O)=O)ccc2OC2CCC2)c2cc[nH]c2c1=O [Example 213, 4-[2-(cyclobutyloxy)-5-(methylsulfonyl)phenyl]-6-methyl-1,6-dihydro-7H-pyrrolo[2,3-c]pyridin-7-one] | 3.2 | 79 | 38 | 4.8 | 89 | 28.7 |  |  |  | 
CCNC(=O)c1cc2c(-c3cc(S(C)(=O)=O)ccc3Oc3ccc(F)cc3F)cn(C)c(=O)c2[nH]1 [Example 253, 4-[2-(2,4-difluorophenoxy)-5-(methylsulfonyl)phenyl]-N-ethyl-6-methyl-7-oxo-6,7-dihydro-1 H-pyrrolo[2,3-c]pyridine-2-carboxamide] | 20.4 | 72 | 110 | 1.2 | 90 | 145 |  |  |  | 
CCS(=O)(=O)Nc1ccc(OCc2ccnn2C)c(-c2cn(C)c(=O)c3[nH]ccc23)c1 [Example 142, N-{3-(6-methyl-7-oxo-6,7-dihydro-1H-pyrrolo[2,3-c]pyridin-4-yl)-4-[(1-methyl-1H-pyrazol-5-yl)methoxy]phenyl}ethanesulfonamide] | 6.5 | 112 | 35 | 79.4 | 32 | 138 |  |  |  | 
Cn1cc(-c2cc(C(=O)NC3CCOC3)ccc2Oc2ccc(F)cc2F)c2cc[nH]c2c1=O (stereo not drawn) [Example 51, 4-(2,4-difluorophenoxy)-3-(6-methyl-7-oxo-6,7-dihydro-1H-pyrrolo[2,3-c]pyridin-4-yl)-N-(tetrahydrofuran-3-yl)benzamide] | 9.7 | 6 | 63 | 16.1 | > 120 | 101 |  |  |  | 
Cn1cc(-c2cc(S(C)(=O)=O)ccc2Oc2cccc(Cl)c2)c2cc[nH]c2c1=O [Example 153, 4-[2-(3-chlorophenoxy)-5-(methylsulfonyl)phenyl]-6-methyl-1,6-dihydro-7H-pyrrolo[2,3-c]pyridin-7-one] | 22.8 | 33 | 8 | 8.2 | 11 | 93.3 |  |  |  | 
CCS(=O)(=O)Nc1ccc(OCC2CC2)c(-c2cn(C)c(=O)c3[nH]ccc23)c1C [Example 251, N-[4-(cyclopropylmethoxy)-2-methyl-3-(6-methyl-7-oxo-6,7-dihydro-1H-pyrrolo[2,3-c]pyridin-4-yl)phenyl]ethanesulfonamide] | 63.1 | 118 | 23 | 171 | 44 | 573 |  |  |  | 
CCS(=O)(=O)c1ccc(O[C@H]2CC[C@@](C)(O)CC2)c(-c2cn(C)c(=O)c3[nH]ccc23)c1 [Example 211, 4-{5-(ethylsulfonyl)-2-[(cis-4-hydroxy-4-methylcyclohexyl)oxy]phenyl}-6-methyl-1,6-dihydro-7H-pyrrolo[2,3-c]pyridin-7-one] | 1.4 |  |  | 2.1 |  |  | 65 | 48 | 63 | 11.9
Cn1cc(-c2cc(S(C)(=O)=O)ccc2Oc2ccc(F)cc2F)c2cc(C(=O)Nc3nccs3)[nH]c2c1=O [Example 257, 4-[2-(2,4-difluorophenoxy)-5-(methylsulfonyl)phenyl]-6-methyl-7-oxo-N-(1,3-thiazol-2-yl)-6,7-dihydro-1H-pyrrolo[2,3-c]pyridine-2-carboxamide] | 58.8 | 18 | 56 | 3 | 20.3 | 360 |  |  |  | 
Cn1cc(-c2cc(C(=O)NCC(F)F)ccc2Oc2ccccc2)c2cc[nH]c2c1=O [Example 16, N-(2,2-difluoroethyl)-3-(6-methyl-7-oxo-6,7-dihydro-1H-pyrrolo[2,3-c]pyridin-4-yl)-4-phenoxybenzamide] | 4.3 | > 120 | 4 | 5.3 | 22 | 94.6 |  |  |  | 
Cn1cc(-c2cc(S(C)(=O)=O)ccc2Oc2ccc(F)cc2F)c2cc(C(=O)N3CCOCC3)[nH]c2c1=O [Example 255, 4-[2-(2,4-difluorophenoxy)-5-(methylsulfonyl)phenyl]-6-methyl-2-(morpholin-4-ylcarbonyl)-1,6-dihydro-7H-pyrrolo[2,3-c]pyridin-7-one] | 10.5 | 70 | > 120 | 154 | > 120 | 265 |  |  |  | 
Cn1cc(-c2cc(S(C)(=O)=O)ccc2Oc2cccc(C(F)(F)F)c2)c2cc[nH]c2c1=O [Example 157, 6-methyl-4-{5-(methylsulfonyl)-2-[3-(trifluoromethyl)phenoxy]phenyl}-1,6-dihydro-7H-pyrrolo[2,3-c]pyridin-7-one] | 30.8 | 27 | 53 | 21.8 | 12 | 150 |  |  |  | 
Cn1cc(-c2cc(S(C)(=O)=O)ccc2Oc2cccc(C#N)c2)c2cc[nH]c2c1=O [Example 155, 3-[2-(6-methyl-7-oxo-6,7-dihydro-1H-pyrrolo[2,3-c]pyridin-4-yl)-4-(methylsulfonyl)phenoxy]benzonitrile] | 19.3 | > 120 | > 120 | 14.8 | 25 | 117 |  |  |  | 
Cn1cc(-c2cc(NS(C)(=O)=O)ccc2OCc2ccccc2)c2cc[nH]c2c1=O [Example 63, N-[4-(benzyloxy)-3-(6-methyl-7-oxo-6,7-dihydro-1H-pyrrolo[2,3-c]pyridin-4-yl)phenyl]methanesulfonamide] | 18 | 39 | 13 | 42.7 | 18 | 105 |  |  |  | 

Other lines, results leading:

Ki [1] [nM] | half-life at 0.5 μM [2] [min] | half-life at 0.5 μM [3] [min] | Ki [4] [nM] | half-life at 0.5 μM [5] [min] | EC50 ([6]; Homo sapiens, MX1, 72 h) [nM] | Stability in human liver microsomes (t1/2 in minutes) [2] [min] | Stability in rat liver microsomes (t1/2 in minutes) ([3]; rat, microsomes, pH 7.4) [min] | Stability in mouse liver microsomes (t1/2 in minutes) ([5]; mouse) [min] | EC50 [6] [nM] | SMILES
389 | 30 | 21 | 190 | 17 | 176 |  |  |  |  | CN(C)CCS(=O)(=O)Nc1ccc(Oc2ccc(F)cc2F)c(-c2cn(C)c(=O)c3[nH]ccc23)c1 [Example 300, N-[4-(2,4-difluorophenoxy)-3-(6-methyl-7-oxo-6,7-dihydro-1H-pyrrolo[2,3-c]pyridin-4-yl)phenyl]-2-(dimethylamino)ethanesulfonamide]
30.4 | 65 | 70 | 30.6 | > 120 | 53.1 |  |  |  |  | Cn1cc(-c2cc(S(C)(=O)=O)ccc2Nc2ccc(F)cc2)c2cc[nH]c2c1=O [Example 332, 4-{2-[(4-fluorophenyl)amino]-5-(methylsulfonyl)phenyl}-6-methyl-1,6-dihydro-7H-pyrrolo[2,3-c]pyridin-7-one]
157 | > 120 | 2 | 422 | 25 | 1000 |  |  |  |  | Cn1cc(-c2cc(-c3ccc(F)nc3)ccc2OCC2CC2)c2cc[nH]c2c1=O [Example 348, 4-[2-(cyclopropylmethoxy)-5-(6-fluoropyridin-3-yl)phenyl]-6-methyl-1,6-dihydro-7H-pyrrolo[2,3-c]pyridin-7-one]
2.4 | 3 | 3 | 2.9 | 2 | 122 |  |  |  |  | Cn1cc(-c2cc(S(=O)(=O)N3CCCC3)ccc2OCC2CC2(F)F)c2cc[nH]c2c1=O (stereo not drawn) [Example 307, 4-{2-[(2,2-difluorocyclopropyl)methoxy]-5-(pyrrolidin-1-ylsulfonyl)phenyl}-6-methyl-1,6-dihydro-7H-pyrrolo[2,3-c]pyridin-7-one]
1.8 | 25 | 119 | 108 | 116 | 191 |  |  |  |  | CN1CCN(Cc2cc3c(-c4cc(S(C)(=O)=O)ccc4Oc4ccc(F)cc4F)cn(C)c(=O)c3[nH]2)CC1 [Example 281, 4-[2-(2,4-difluorophenoxy)-5-(methylsulfonyl)phenyl]-6-methyl-2-[(4-methylpiperazin-1-yl)methyl]-1,6-dihydro-7H-pyrrolo[2,3-c]pyridin-7-one]
0.8 | 100 | 76 | 31.6 | 67 | 77.4 |  |  |  |  | CCS(=O)(=O)Nc1ccc(Oc2ccc(F)cc2F)c(-c2cn(C)c(=O)c3[nH]c(CN4CCN(C)CC4)cc23)c1 [Example 339, N-[4-(2,4-difluorophenoxy)-3-{6-methyl-2-[(4-methylpiperazin-1-yl)methyl]-7-oxo-6,7-dihydro-1H-pyrrolo[2,3-c]pyridin-4-yl}phenyl]ethanesulfonamide]
